Test results published in patent EP4556003A1, “ANTI-OBESITY AND ANTI-DIABETIC ACTIVITY OF BROMINATED DITERPENES FROM RED ALGAE OF THE GENUS LAURENCIA AND APPLICATIONS THEREOF” (priority 2023, dated 2025).

Tests used:
3T3-L1 preadipocytes = experiment: Seahorse XF cell metabolism analysis (extracellular acidification rate); format: cell-based, Mouse; settings: 62.5 µM for 24 h
Experimental: Seahorse XF Cell Energy Phenotype Test Kit and Seahorse XF Cell Mito Stress Test Kit were used to measure oxygen consumption rate and extracellular acidification rate on a Seahorse Bioscience XF Analyzer (Agilent Technologies). 3T3-L1 preadipocytes were seeded at 7.5×10^3 per well in growth medium in XF 96 Cell Culture Microplate (Agilent Technologies) two days prior to assay. 24 h prior to the assay, medium was changed and compound 1 was added at concentration of 62.5 µM. The day of the assay, cells were washed once and media was replaced with XF Base Medium (pH 7.4) supplemented with 1 mM pyruvate, 2 mM glutamine and 10 mM glucose. The plate was placed in a 37 °C incubator without CO2 for one hour prior to the assay. Cells were washed a second time right before starting the experiment. After measuring basal oxygen consumption rate and extracellular acidification rate, oligomycin (1.0 µM) and FCCP (1.0 µM) were introduced in real time to measure oxygen consumption rate and extracellular acidification rate under stressed condition. For the baseline extracellular acidification rate the third out of the three baseline measurements was used, while for the stressed condition, the highest measurement after the injections was used. The metabolic potential is calculated as the percentage of stressed extracellular acidification rate to baseline extracellular acidification rate.

[1] = High fat diet-induced obesity mouse model (weight gain, abdominal fat, spleen weight, overall toxicity); format: in vivo; settings: high fat diet mice
Experimental: (§1) All procedures were conducted in compliance with protocols approved by the Animal Care Committee of the University of Crete, School of Medicine (Facility number EL91-BIOexp-06), in conjunction with the Veterinary Department of the Region of Crete, Heraklion, Crete, Greece. C57BL/6 adult male mice were maintained in a 12 h day/night cycle and 21-23 °C conditions. Mice were provided with water and either normal fat diet, or high fat diet (60% energy from fat) ad libitum. All mice were weighed every 48 h.
(§2) Neorogioldiol was first dissolved in 90% carbowaxTM 400, 10% (v/v) absolute ethanol solution and then diluted 1:10 in water for injection. A dose of 0.25 mg neorogioldiol in a total volume of 200 µl was administered intraperitoneally every 48 h in mice in high fat + neorogioldiol group starting from day 1. 4-5 mice were used per group and each experiment was performed twice.
(§3) Abdominal fat lobes were weighed, washed in PBS, minced and dissolved with collagenase. They were incubated in 1.5mg/ml collagenase in 1% PBS-BSA, for 30 min at 37 °C. Next, homogenate was centrifuged at 800 rpm for 5 min at room temperature. The upper fatty phase, which contains the adipocytes, was collected and resuspended in TRI Reagent® and RNA isolation was carried out according to the manufacturer's instructions. The cell pellet, which is the stromal vascular fraction, was washed once with PBS and resuspended in TRI Reagent® for RNA isolation.

[2] = Glucose tolerance test in high fat diet-fed mice; format: in vivo, C57BL/6 adult male mice
Experimental: as §1, §2
Mice were fasted for 16 h before receiving an intraperitoneal injection of 35% dextrose (100 µl / 35 gr). Blood glucose concentrations were measured in blood collected by venous bleeding from the tail vein immediately before the injections and after 30, 60 and 120 min.

[3] = tested on: cytochrome P450 genes (Cyp1a1, Cyp2b10, Cyp3a11, Cyp3a25); experiment: Quantitative PCR of cytochrome P450 genes in liver RNA extracts; format: in vivo, C57BL/6 adult male mice; settings: 0.25 mg/mouse i.p. every 48 h for 35 days; vs high-fat diet mice
Experimental: (§4) Adipocytes and preadipocytes were harvested using the TRI Reagent®. RNA isolation was carried out according to the manufacturer's instructions. The purified RNA was quantified using the Nanodrop micro-volume spectrophotometer and 500 ng of each sample were used as a template for reverse transcription. cDNA synthesis was performed using the PrimeScriptTM RT reagent Kit (TaKaRa, RR037A) according to manufacturer's instructions. The cDNA produced by the above described procedure was diluted and used as a template for two-step quantitative PCR in a StepOnePlus™ Real-Time PCR System (Applied Biosystems™, 4376600) for a maximum of 40 cycles, as follows: start step 95 °C for 3 min, repeat steps: 95 °C for 15 s and 60 °C for 30 s. Amplification was performed using KAPA SYBR® FAST Universal qPCR kit (Kapa Biosystems, KK4618) according to manufacturer's instructions. Relative quantitative analysis was accomplished calculating fold-changes of gene expression as 2-(ΔΔCt), where ΔCt is (Ct (gene of interest) - Ct (housekeeping gene)). Ppib was used as internal control gene in 3T3L1 cells and in the fat fraction of mice abdominal fat, Rps9 was used as internal control gene in the stromal vascular fraction of mice abdominal fat and Actb was used as internal control gene in liver samples. Table 1. List of primers used for quantitative real-time PCR analysis.
as §1, §2

abdominal fat = experiment: Quantitative PCR in fat fraction and stromal vascular fraction of abdominal fat; format: in vivo, C57BL/6 adult male mice
Experimental: as §4, §1, §2, §3

3T3-L1 cells = experiment: Quantitative PCR of relative mRNA expression in cell culture samples; format: cell-based, Mouse; settings: mature adipocytes: differentiated 15 days, then 62.5 µM for 8 more days
[4] = reference [12]; cited from earlier work
[5] = intraperitoneal 0.25 mg/mouse every 48 h for 35 days, vs high fat diet without neorogioldiol
[6] = high fat diet + neorogioldiol vs high fat diet mice
[7] = high fat diet + neorogioldiol vs untreated obese mice

neorogioldiol
basal levels of extracellular acidification rate (3T3-L1 preadipocytes): increasing basal levels
metabolic potential (stressed to baseline extracellular acidification rate) (3T3-L1 preadipocytes; after oligomycin and FCCP): decreased the metabolic potential
toxicity in vivo (overall) ([1]; 0.25 mg/mouse i.p. every 48 h for 35 days): did not exhibit any toxicity in vivo
abdominal fat mass [1, 5]: reduced abdominal fat mass
weight gain [1, 5]: suppressed weight gain
glucose intolerance (glucose tolerance test) ([2]; day 16, 0.25 mg/mouse i.p. every 48 h): had not developed glucose intolerance
glucose intolerance (glucose tolerance test) ([2]; day 34, 0.25 mg/mouse i.p. every 48 h): became glucose intolerant
Cyp1a1 expression in liver RNA extracts [3]: no difference
Cyp2b10 expression in liver RNA extracts [3]: no difference
Cyp3a11 expression in liver RNA extracts [3]: no difference
Cyp3a25 expression in liver RNA extracts [3]: no difference
Arg1 expression in the stromal vascular fraction (abdominal fat; [6]): downregulated
Il10 expression in the stromal vascular fraction (abdominal fat; [6]): downregulated
Adipoq expression in the fat fraction of abdominal fat (abdominal fat; [7]): lower levels
Lep expression in the fat fraction of abdominal fat (abdominal fat; [7]): lower levels
Dlkl expression (3T3-L1 cells): did not affect the expression
Lep expression (3T3-L1 cells): decreased the expression
Slc2a4 expression (3T3-L1 cells): decreased the expression
anti-inflammatory activity [4]: potent anti-inflammatory activity
